Data set [1] is described as follows: Therapeutic index, ratio of HC10 for mouse RBC to IC50 for cytotoxicity against human HeLa cells. Conditions: mouse RBC and HeLa cells, read-out: TI. It is filed as toxicity, cell-based.
Another data set relates to A549. The experiment in a line: Cytotoxicity against human A549 cells assessed as inhibition of cell growth incubated for 1 hr by MTT assay. Type of data set: functional, cell-based. As to conditions: A549, 1 h. Background: Formazan colour is commonly taken as a measure of viable cells.
Data set [2] can be described thus: Therapeutic index, ratio of HC10 for mouse RBC to IC50 for cytotoxicity against human A549 cells. It is filed as toxicity, cell-based. Conditions: mouse RBC and A549 cells, read-out: TI.
Data set [3] in a line: Cytotoxicity against RG cells (unknown origin) assessed as inhibition of cell growth incubated for 1 hr by MTT assay. It is filed as functional, cell-based.
Data set [4] is described as follows: Therapeutic index, ratio of HC10 for mouse RBC to IC50 for cytotoxicity against RG cells (unknown origin). As to conditions: mouse RBC and RG cells, read-out: TI. Type of data set: toxicity, cell-based.
A further data set deals with MCF7. The experiment in a line: Cytotoxicity against human MCF7 cells assessed as inhibition of cell growth incubated for 1 hr by MTT assay. Type of data set: functional, cell-based. As to conditions: MCF7, 1 h.
A short description of data set [5]: Cytotoxicity against HK-2 cells assessed as inhibition of cell growth incubated for 1 hr by MTT assay. Type of data set: toxicity, cell-based. Conditions: human.
The test system of a further data set is HeLa. Briefly: Cytotoxicity against human HeLa cells assessed as inhibition of cell growth incubated for 1 hr by MTT assay. It is filed as functional, cell-based.
Data set [6] is described as follows: Therapeutic index, ratio of HC10 for mouse RBC to IC50 for cytotoxicity against human MCF7 cells. Type of data set: toxicity, cell-based. As to conditions: mouse RBC and MCF7 cells, read-out: TI.
Data set [7] concerns Cell membrane. Briefly: Disruption of cell membrane integrity in human MCF7 cells assessed as increase in PI fluorescence measured after 1 hr by laser confocal scanning microscopic analysis. It is filed as cell membranes.
The subject of data set [8] is Cell membrane. The experiment in a line: Induction of cell membrane damage in human MCF7 cells assessed as protein leakage at 1 to 2 times IC50 measured after 0.5 to 6 hrs by UV based analysis. Type of data set: cell membranes. Conditions: time 0.5-6 hrs.
Data set [9] has as its system Cell membrane. The experiment in a line: Induction of cell membrane damage in human MCF7 cells assessed as nucleic acid leakage at 1 to 2 times IC50 measured after 0.5 to 6 hrs by UV based analysis. Type of data set: cell membranes. Conditions: time 0.5-6 hrs.
Data set [10] is described as follows: Hemolytic activity in mouse RBC at 12.5 uM incubated for 1 hr by absorbance based assay relative to control. Conditions: red blood cells (erythrocytes), read-out: Activity. It is filed as toxicity, cell-based, Erythrocyte.
The test system of data set [11] is Cell membrane. Briefly: Induction of morphological changes in cell membrane of human MCF7 cells assessed as membrane damage at 1 times IC50 incubated for 1 hr by SEM analysis. It is filed as cell membranes.
Data set [12] has as its system Cell membrane. The experiment in a line: Disruption of cell membrane in human MCF7 cells assessed as LDH release at 40 uM incubated for 1 hr by fluorescence based microplate reader analysis relative to control. Type of data set: cell membranes. A general note: Release of lactate dehydrogenase indicates damage to the cell membrane.
The subject of data set [13] is Cell membrane. Briefly: Induction of morphological changes in cell membrane of human MCF7 cells assessed as cell depression at 1 times IC50 incubated for 1 hr by SEM analysis. It is filed as cell membranes.
Data set [14] has as its system Cell membrane. Briefly: Disruption of cell membrane integrity in human MCF7 cells assessed as increase in PI fluorescence at 1 times IC50 by laser confocal scanning microscopic analysis. As to conditions: time 0-120 min, TDE = time-dependent effect.

Calls of active or inactive are those of the source. The rule behind the calls is not given here. Non-standard residues stand in square brackets, D forms with d. Residues, ends and D or L forms follow the SMILES beside them. Dip = N[C@H](C(=O)O)C(c1ccccc1)c1ccccc1; Nle(6-COOH) = N[C@@H](CCCCC(=O)O)C(=O)O; Asu = N[C@@H](CCCCCC(=O)O)C(=O)O A value given as a limit tells only on which side of the number the result lay.

With `CC(C)C[C@H](NC(=O)[C@H](CCCCN)NC(=O)[C@H](CCCCN)NC(=O)[C@H](CC(C)C)NC(=O)[C@H](CC(C)C)NC(=O)[C@H](CCCCN)NC(=O)[C@H](CCCCN)NC(=O)[C@H](CC(C)C)NC(=O)[C@H](CC(C)C)NC(=O)[C@H](CCCCN)NC(=O)[C@H](CCCCN)NC(=O)[C@H](CC(C)C)NC(=O)[C@@H](N)CC(C)C)C(=O)N[C@@H](CCCCCC(=O)O)C(N)=O` (H-LLKKLLKKLLKKL[Asu]-NH2), the selectivity ratio in data set [1] was determined as 15.4; in [2], 13.5; in [4] it was 6.3; in data set [6] it was 9.43. For the same compound, the IC50 in the data set on A549 came to 5.97 µM; in [3], 12.8 µM; in the data set with MCF7 it was 8.55 µM; in the data set with HeLa, 5.23 µM. Also, the IC50 at 1 h in [5] stood at 15.3 µM.

For `CC(C)C[C@H](NC(=O)[C@H](CCCCN)NC(=O)[C@H](CCCCN)NC(=O)[C@H](CC(C)C)NC(=O)[C@H](CC(C)C)NC(=O)[C@H](CCCCN)NC(=O)[C@H](CCCCN)NC(=O)[C@H](CC(C)C)NC(=O)[C@H](CC(C)C)NC(=O)[C@H](CCCCN)NC(=O)[C@H](CCCCN)NC(=O)[C@H](CC(C)C)NC(=O)[C@@H](N)CC(C)C)C(=O)N[C@@H](CCCCC(=O)O)C(N)=O` (H-LLKKLLKKLLKKL[Nle(6-COOH)]-NH2), the selectivity ratio in data set [1] was 25.4; in data set [2] it was 17.1; in data set [4], 9.42; in data set [6] it was 13.8. Besides, the IC50 with A549 amounted to 11.2 µM; in [3] it was 20.4 µM; with MCF7, 14 µM; in the data set with HeLa it was 7.59 µM. The IC50 at 1 h in data set [5] was 26.4 µM.

For the compound `CC[C@H](C)[C@H](NC(=O)CN)C(=O)NCC(=O)N[C@@H](C)C(=O)N[C@H](C(=O)N[C@@H](CC(C)C)C(=O)N[C@@H](CCCCN)C(=O)N[C@H](C(=O)N[C@@H](CC(C)C)C(=O)N[C@H](C(=O)N[C@H](C(=O)NCC(=O)N[C@@H](CC(C)C)C(=O)N1CCC[C@H]1C(=O)N[C@@H](C)C(=O)N[C@@H](CC(C)C)C(=O)N[C@H](C(=O)N[C@@H](CO)C(=O)N[C@@H](Cc1c[nH]c2ccccc12)C(=O)N[C@H](C(=O)N[C@@H](CCCCN)C(=O)N[C@@H](CCCNC(=N)N)C(=O)N[C@@H](CCCCN)C(=O)N[C@@H](CCCNC(=N)N)C(=O)N[C@@H](CCC(N)=O)C(=O)N[C@@H](CCC(N)=O)C(N)=O)[C@@H](C)CC)[C@@H](C)CC)[C@@H](C)O)[C@@H](C)O)C(C)C)C(C)C` [MELITTIN], the Activity entry with Cell membrane [7] was “Dose-Dependent Effect”; in the data set on Cell membrane [12], 86.8%; in the data set with Cell membrane [14] it was “Tde”. The selectivity ratio in data set [1] came to 1.44; in data set [2] it was 0.733; in data set [4], 0.859; in data set [6], 0.747. In addition, the outcome with Cell membrane [8], in the data set with Cell membrane [9], with Cell membrane [11] and in the data set with Cell membrane [13] was Active. For the same compound, the IC50 with A549 amounted to 1.83 µM; with MCF7, 1.79 µM; in the data set with HeLa it was 0.934 µM. For the same compound, the hemolysis at 1 h, 12.5 µM in [10] is more than 85%. Besides, in data set [5], the IC50 at 1 h is 0.802 µM.

`NCCCC[C@H](NC(=O)[C@@H](NC(=O)[C@H](Cc1c[nH]c2ccccc12)NC(=O)[C@H](CCCCN)NC(=O)[C@H](CCCCN)NC(=O)[C@H](Cc1c[nH]c2ccccc12)NC(=O)[C@H](Cc1c[nH]c2ccccc12)NC(=O)[C@H](CCCCN)NC(=O)[C@@H](N)CCCCN)C(c1ccccc1)c1ccccc1)C(N)=O` [RUXOTEMITIDE] (H-KKWWKKW[Dip]K-NH2): the selectivity ratio in [1] was 10.6; in data set [2] it was 2.43; in [4], 3.6; in data set [6], 2.45. For the same compound, the IC50 in the data set with A549 was 64.1 µM; in [3], 43.2 µM; with MCF7, 63.5 µM; in the data set with HeLa it was 14.7 µM. Also, in data set [5], the IC50 at 1 h was 78.4 µM.

A word on the IC50: it is the midpoint of a concentration-inhibition curve.

The values above are taken from ChEMBL document CHEMBL5584231, “Rational design of a new short anticancer peptide with good potential for cancer treatment” (Eur J Med Chem, 2024).
